Reference: PubChem BioAssay (NCI)
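Values below derive from 48-hour exposures of cells grown in 96-well plates, with endpoints linearly interpolated between the two concentrations bracketing the appropriate inhibition level. TGI marks complete inhibition of growth.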

Assays:
Assay in all cases: NCI anticancer screen, dose series, 48 h
[1] = tested on: MDA-MB-231 breast
[2] = tested on: HOP-62 NSCLC
[3] = tested on: BT-549 breast
[4] = tested on: HOP-92 NSCLC
[5] = tested on: UACC-62 melanoma
[6] = tested on: OVCAR-8 ovarian
[7] = tested on: CCRF-CEM leukemia
[8] = tested on: NCI-H522 lung
[9] = tested on: U251 CNS
[10] = tested on: NCI-H23 lung
[11] = tested on: UO-31 renal
[12] = tested on: SF-295 CNS
[13] = tested on: MDA-N
[14] = tested on: HCT-15 colon
[15] = tested on: SF-268 CNS
[16] = tested on: T-47D breast
[17] = tested on: MDA-MB-435
[18] = tested on: NCI/ADR-RES ovarian
[19] = tested on: SNB-75 CNS
[20] = tested on: MOLT-4 leukemia
[21] = tested on: K-562 leukemia
[22] = tested on: UACC-257 melanoma
[23] = tested on: SF-539 CNS
[24] = tested on: OVCAR-3 ovarian
[25] = tested on: IGROV1 ovarian
[26] = tested on: SK-OV-3 ovarian
[27] = tested on: SNB-19 CNS
[28] = tested on: KM12 colon
[29] = tested on: NCI-H460 lung
[30] = tested on: TK-10 renal
[31] = tested on: SK-MEL-5 melanoma
[32] = tested on: SN12C renal
[33] = tested on: SR leukemia
[34] = tested on: OVCAR-4 ovarian
[35] = tested on: HCT-116 colon
[36] = tested on: PC-3 prostate
[37] = tested on: 786-0 renal
[38] = tested on: COLO 205 colon
[39] = tested on: HL-60(TB) leukemia
[40] = tested on: SK-MEL-28 melanoma
[41] = tested on: HT29 colon
[42] = tested on: HCC-2998 colon
[43] = tested on: EKVX NSCLC
[44] = tested on: OVCAR-5 ovarian
[45] = tested on: A549 NSCLC
[46] = tested on: LOX IMVI melanoma
[47] = tested on: MCF7 breast
[48] = tested on: SW-620 colon
[49] = tested on: DU-145 prostate
[50] = tested on: M14 melanoma
[51] = tested on: RPMI-8226 leukemia
[52] = tested on: NCI-H226 lung
[53] = tested on: A498 renal
[54] = tested on: ACHN renal
[55] = tested on: CAKI-1 renal
[56] = tested on: SK-MEL-2 melanoma
[57] = tested on: RXF 393 renal
[58] = tested on: MALME-3M melanoma

Measured: TGI

COc1cccc(-c2nc(-c3cnccn3)n(C3OC(CO)C(O)C3O)n2)c1 (stereo unspecified)
not listed: [51] | [52] | [53] | [54] | [55] | [56] | [57] | [58]
> 100 µM: all other assays above

C[Si](C)(C)CNC(=O)OCc1ccccc1
72.4 µM: [16]
not listed: [20] | [57] | [58]
> 100 µM: all other assays above

[N-]=[N+]=CC(=O)OC1CCOCC1
not listed: [6] | [16] | [18] | [19] | [23] | [45] | [50]
> 100 µM: all other assays above
